Results: patent publication US20250136552A1, “ANTAGONISTS OF CAV 2.3” (LARIO THERAPEUTICS LIMITED, priority 2021, published 2025)

Biological target: Cav2.3 (Homo sapiens, UniProt Q15878)
Test: Human Cav2.3 channel calcium-influx assay
Format: cell-based
Details: HEK-293 T-Rex/Kir2.1 cells with inducible Cav2.3e-β4-α2δ1; Fluo8 fluorescence; 8-point dose response from 30 μM; no pluronic acid; read-out: Cav2.3 (pIC50) (converted)
Description: HEK-293 T-Rex cells were transfected with pcDNA3.1-Kir2.1 to generate a stable cell line. After antibiotic selection, the obtained stable pools were analysed using FLIPR^TETRA(membrane potential assay), and a limiting dilution was performed and a HEK-293 T-Rex/Kir2.1 clone was selected. The clone was transfected with pcDNA3.1-Cav2.3e and pBud-Cav-β4-α2δ1 to generate a stable cell line where the Cav2.3e expression is inducible. After antibiotic selection, functional clone pool analysis and two successive limiting dilutions, the final clone underwent a qPCR analysis and a biophysical and pharmacological validation using patch-clamp.
A compound plate, containing 10 test compounds in eight-points dose response with n=4, was prepared. Test compounds dose response curves were prepared in automated fashion in 100% DMSO at CyBio Felix and starting from a stock solution in 100% DMSO; a defined volume was serially moved into destination wells pre-filled with the desired DMSO volume; stock solution concentration volumes were dependent on the final compounds concentrations to be tested and the final DMSO content used in the assay. For the assay test compounds dose response curves ranged from 30 μM and half log dilution with 0.3% final DMSO. In order to obtain the 8-points dose response curve all the concentrations were created by starting from a 10 mM DMSO stock solution and then moving 9.5 μL into a destination well pre-filled with 20.5 μL of 100% DMSO and repeating this step seven times. This initial step was done into 96 MTP plates, 10 compounds/plate. One 384 MTP was then reformatted to contain all the 10 compounds at 8 concentrations, quadruplicate data points. This so obtained 384 MTP compound plate served as source plate in a “mother to child” process with a CyBi®-Well dispenser in which 0.7 μL of compounds were moved into a destination plate pre-filled with 57.6 μL of Tyrode's buffer 0 mM K^+, thus obtaining 4× concentrated compounds solution. In columns 1-2 and 23-24 the control wells were added. Both “source” compound plate and “destination” compound plate were barcoded and a relationship between the two plates was thus generated.
The day before the experiment, cells were detached by gentle wash with DPBS, followed by 5 min incubation at 37° C. with Trypsin solution. Detached cells were diluted with OptiMEM+Doxycycline at 0.2 μg/mL, counted and plated in Poly-D-Lysine coated black/clear bottom (15.000 c/well in 20 μl/well) by the use of a MATRIX WellMate dispenser. Plates were placed into a humidified incubator at 37° C. with 5% CO2 until the experimental day. 24 h after seeding 10 μL/well of 1.5× Fluo8 NW dye solution prepared in Tyrode's buffer 0 mM K^+ were added on top of the seeding medium. Cell plates were incubated for 40-60 min at RT in the dark. We then Injected off-line 10 μL/well of test compounds and controls 4× concentrated in Tyrode's Buffer 0 mM K+ with the CyBi®-Well instrument. Cell plates were incubated 3 minutes at RT. Finally, we injected 20 μL/well of 3× concentrated activator solution (K20-Na130-Ca2 buffer: 20 mM KCl, 130 mM NaCl, 2 mM CaCl2, 10 mM HEPES, 10 mM Glucose, final concentrations, prepared starting from “K0-Na150-Ca2” and “K150-Na0-Ca2” buffers) at FDSS7000EX instrument and read emitted fluorescence for 130 seconds.
Data analysis was performed with Genedata Screener® software and reported compounds activity as % effect in relation to the normalization standards. The Kinetic Response Value (KRV) is calculated as follows:
KRV=Maximal fluorescence recorded from second 5 to second 130 minus baseline fluorescence, computed as average from second 1 to second 2, of the kinetic trace. The KRV was normalized versus Neutral Controls and Inhibitor Controls in order to obtain the Activity[%] for each well. […] Therefore, the compound activity values were scaled (based on the two references) to a common range (two-point normalization). […]

Sequence of Cav2.3 (Q15878 1-2270 isoform Q15878-3): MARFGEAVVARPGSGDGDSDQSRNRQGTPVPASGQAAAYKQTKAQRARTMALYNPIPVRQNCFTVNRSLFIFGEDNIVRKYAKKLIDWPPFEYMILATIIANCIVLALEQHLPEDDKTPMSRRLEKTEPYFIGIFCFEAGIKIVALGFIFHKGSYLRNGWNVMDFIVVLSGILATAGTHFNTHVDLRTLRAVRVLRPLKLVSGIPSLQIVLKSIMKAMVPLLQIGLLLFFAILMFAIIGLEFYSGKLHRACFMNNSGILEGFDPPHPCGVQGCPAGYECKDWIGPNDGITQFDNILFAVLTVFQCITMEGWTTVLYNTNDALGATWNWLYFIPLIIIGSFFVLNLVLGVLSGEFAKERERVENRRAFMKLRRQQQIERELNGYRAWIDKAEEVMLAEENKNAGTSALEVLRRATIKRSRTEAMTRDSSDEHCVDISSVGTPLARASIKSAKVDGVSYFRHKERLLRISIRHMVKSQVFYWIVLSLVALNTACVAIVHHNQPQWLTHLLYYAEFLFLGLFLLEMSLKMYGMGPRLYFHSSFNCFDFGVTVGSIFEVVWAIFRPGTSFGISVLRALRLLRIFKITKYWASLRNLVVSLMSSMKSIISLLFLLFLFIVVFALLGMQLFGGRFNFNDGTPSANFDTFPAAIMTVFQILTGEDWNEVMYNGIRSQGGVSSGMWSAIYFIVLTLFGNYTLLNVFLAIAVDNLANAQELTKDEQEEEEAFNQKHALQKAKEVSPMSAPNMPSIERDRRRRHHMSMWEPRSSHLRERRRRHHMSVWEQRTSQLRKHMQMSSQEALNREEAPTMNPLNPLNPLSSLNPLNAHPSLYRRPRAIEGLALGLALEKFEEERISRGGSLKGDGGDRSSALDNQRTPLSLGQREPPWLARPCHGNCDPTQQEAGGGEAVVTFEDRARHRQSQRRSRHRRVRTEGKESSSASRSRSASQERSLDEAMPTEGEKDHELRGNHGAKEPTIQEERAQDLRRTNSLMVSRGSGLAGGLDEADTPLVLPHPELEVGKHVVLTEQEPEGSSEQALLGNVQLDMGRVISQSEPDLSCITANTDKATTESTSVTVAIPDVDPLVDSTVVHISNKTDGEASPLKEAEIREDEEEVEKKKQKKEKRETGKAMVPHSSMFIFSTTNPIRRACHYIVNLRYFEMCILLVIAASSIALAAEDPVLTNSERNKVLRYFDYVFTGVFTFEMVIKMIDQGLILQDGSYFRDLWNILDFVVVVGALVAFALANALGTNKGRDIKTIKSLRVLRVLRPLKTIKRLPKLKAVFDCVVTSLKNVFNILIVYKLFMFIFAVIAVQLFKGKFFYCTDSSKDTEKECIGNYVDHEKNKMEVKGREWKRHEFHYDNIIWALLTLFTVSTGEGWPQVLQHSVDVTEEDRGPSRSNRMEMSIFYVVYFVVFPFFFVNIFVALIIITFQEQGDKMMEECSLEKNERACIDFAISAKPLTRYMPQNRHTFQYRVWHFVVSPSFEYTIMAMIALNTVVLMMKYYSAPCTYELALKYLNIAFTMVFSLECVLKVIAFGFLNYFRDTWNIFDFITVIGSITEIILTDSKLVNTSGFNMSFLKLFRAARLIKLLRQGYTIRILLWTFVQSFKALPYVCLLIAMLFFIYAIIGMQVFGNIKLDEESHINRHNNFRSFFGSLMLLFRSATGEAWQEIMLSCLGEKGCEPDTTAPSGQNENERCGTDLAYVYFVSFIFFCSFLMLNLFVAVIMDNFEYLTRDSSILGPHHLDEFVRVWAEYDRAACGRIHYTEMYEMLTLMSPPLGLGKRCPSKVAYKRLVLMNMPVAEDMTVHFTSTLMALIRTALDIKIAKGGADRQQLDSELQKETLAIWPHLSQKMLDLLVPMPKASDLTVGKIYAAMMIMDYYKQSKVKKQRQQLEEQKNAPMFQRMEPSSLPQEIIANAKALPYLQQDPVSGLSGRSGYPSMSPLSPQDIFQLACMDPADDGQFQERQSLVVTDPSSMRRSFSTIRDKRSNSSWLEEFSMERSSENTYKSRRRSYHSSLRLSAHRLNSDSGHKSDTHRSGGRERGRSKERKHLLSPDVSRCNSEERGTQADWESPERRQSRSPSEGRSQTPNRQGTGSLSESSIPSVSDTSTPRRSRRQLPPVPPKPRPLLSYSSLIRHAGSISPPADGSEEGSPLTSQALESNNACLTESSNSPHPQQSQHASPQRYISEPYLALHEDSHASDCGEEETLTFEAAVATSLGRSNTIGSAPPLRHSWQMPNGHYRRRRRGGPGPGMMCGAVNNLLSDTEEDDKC

| IC50 [µM] | Structure (SMILES) |
| --- | --- |
| 6.17 | CC(C)C(=O)N1CCc2ccc(S(=O)(=O)NCC(C)c3ccc(F)cc3)cc2C1 (single isomer, unassigned) [Example 17, N-(2-(4-fluorophenyl)propyl)-2-isobutyryl-1,2,3,4-tetrahydroisoquinoline-7-sulfonamide] |
| 2 | CCN([C@@H](c1ccc(F)cc1)C(F)(F)F)S(=O)(=O)c1ccc2c(c1)CN(C(=O)C(C)C)CC2 (stereo in doubt) [Example 7, N-ethyl-2-isobutyryl-N-(2,2,2-trifluoro-1-(4-fluorophenyl)ethyl)-1,2,3,4-tetrahydroisoquinoline-7-sulfonamide] |
| 2.04 | C[C@@H](c1ccccc1)N(C)S(=O)(=O)c1ccc2c(c1)CN(C(=O)C(F)(F)F)CC2 [Example 2, (S)-N-methyl-N-(1-phenylethyl)-2-(2,2,2-trifluoroacetyl)-1,2,3,4-tetrahydroisoquinoline-7-sulfonamide] |
| 2.09 | C[C@@H](c1ccccc1)N(C)S(=O)(=O)c1ccc2c(c1)CN(c1ccncc1)CC2 [Example 3, (S)-N-methyl-N-(1-phenylethyl)-2-(pyridin-4-yl)-1,2,3,4-tetrahydroisoquinoline-7-sulfonamide] |
| 2 | C[C@@H](c1ccccc1)N(C)S(=O)(=O)c1ccc2c(c1)CN(C(=O)c1ccccc1)CC2 [Example 4, (S)-2-benzoyl-N-methyl-N-(1-phenylethyl)-1,2,3,4-tetrahydroisoquinoline-7-sulfonamide] |
| 0.437 | CCN(C(c1ccc(F)cc1)C(F)(F)F)S(=O)(=O)c1ccc2c(c1)CN(C(=O)C(C)C)CC2 (stereo not shown) [Example 5, N-ethyl-2-isobutyryl-N-(2,2,2-trifluoro-1-(4-fluorophenyl)ethyl)-1,2,3,4-tetrahydroisoquinoline-7-sulfonamide] |
| 1.07 | CC(C)C(=O)N1CCc2ccc(S(=O)(=O)N(C)C(c3ccc(F)cc3)C(F)(F)F)cc2C1 (stereo not shown) [Example 8, 2-isobutyryl-N-methyl-N-(2,2,2-trifluoro-1-(4-fluorophenyl)ethyl)-1,2,3,4-tetrahydroisoquinoline-7-sulfonamide] |
| 3.72 | CC(C)C(=O)N1CCc2ccc(S(=O)(=O)N(C)[C@@H](c3ccc(F)cc3)C(F)(F)F)cc2C1 [Example 10, (S)-2-isobutyryl-N-methyl-N-(2,2,2-trifluoro-1-(4-fluorophenyl)ethyl)-1,2,3,4-tetrahydroisoquinoline-7-sulfonamide] |
| 0.851 | CC(C)C(=O)N1CCc2ccc(S(=O)(=O)N(C)[C@@H](C)c3ccc(F)cc3)cc2C1 [Example 11, (S)-N-(1-(4-fluorophenyl)ethyl)-2-isobutyryl-N-methyl-1,2,3,4-tetrahydroisoquinoline-7-sulfonamide] |
| 0.912 | CCN([C@@H](C)c1ccc(F)cc1)S(=O)(=O)c1ccc2c(c1)CN(C(=O)C1CC1)CC2 [Example 13, (S)-2-(cyclopropanecarbonyl)-N-ethyl-N-(1-(4-fluorophenyl)ethyl)-1,2,3,4-tetrahydroisoquinoline-7-sulfonamide] |
| 0.891 | CC(C)C(=O)N1CCc2ccc(S(=O)(=O)N(C)[C@@H](C)c3ccccc3)cc2C1 [Example 15, (S)-2-isobutyryl-N-methyl-N-(1-phenylethyl)-1,2,3,4-tetrahydroisoquinoline-7-sulfonamide] |
| 1.02 | C[C@@H](c1ccccc1)N(C)S(=O)(=O)c1ccc2c(c1)CN(C(=O)C1CC1)CC2 [Example 16, (S)-2-(cyclopropanecarbonyl)-N-methyl-N-(1-phenylethyl)-1,2,3,4-tetrahydroisoquinoline-7-sulfonamide] |
| 1.1 | CCN(C(c1ccc(F)cc1)C(F)(F)F)S(=O)(=O)c1ccc2c(c1)CN(C(=O)C(C)(C)F)CC2 (stereo not shown) [Example 18, N-ethyl-2-(2-fluoro-2-methylpropanoyl)-N-(2,2,2-trifluoro-1-(4-fluorophenyl)ethyl)-1,2,3,4-tetrahydroisoquinoline-7-sulfonamide] |
| 0.575 | CCN([C@@H](C)c1ccc(F)cc1)S(=O)(=O)c1ccc2c(c1)CN(C(=O)C(C)(C)F)CC2 [Example 19, (S)-N-ethyl-2-(2-fluoro-2-methylpropanoyl)-N-(1-(4-fluorophenyl)ethyl)-1,2,3,4-tetrahydroisoquinoline-7-sulfonamide] |
| 3.98 | CCN([C@@H](C)c1ccc(C(F)(F)F)cc1)S(=O)(=O)c1ccc2c(c1)CCN(C(=O)C1CC1)C2 [Example 21, (S)-2-(cyclopropanecarbonyl)-N-ethyl-N-(1-(4-(trifluoromethyl)phenyl)ethyl)-1,2,3,4-tetrahydroisoquinoline-6-sulfonamide] |
| 0.955 | CCN([C@@H](C)c1ccc(F)cc1)S(=O)(=O)c1cc(F)c2c(c1)CCN(C(=O)C1CC1)C2 [Example 22, (S)-2-(cyclopropanecarbonyl)-N-ethyl-8-fluoro-N-(1-(4-fluorophenyl)ethyl)-1,2,3,4-tetrahydroisoquinoline-6-sulfonamide] |
| 2.14 | CCN([C@@H](C)c1ccc(F)cc1)S(=O)(=O)c1ccc2c(c1)C(C)(C)CN(C(=O)C1CC1)C2 [Example 23, (S)-2-(cyclopropanecarbonyl)-N-ethyl-N-(1-(4-fluorophenyl)ethyl)-4,4-dimethyl-1,2,3,4-tetrahydroisoquinoline-6-sulfonamide] |
| 1.74 | CCN([C@@H](C)c1ccc(F)cc1)S(=O)(=O)c1ccc2c(c1)CCN(C(=O)C(C)C)C2 [Example 24, (S)-N-ethyl-N-(1-(4-fluorophenyl)ethyl)-2-isobutyryl-1,2,3,4-tetrahydroisoquinoline-6-sulfonamide] |
| 1.45 | CCN([C@@H](C)c1ccccc1)S(=O)(=O)c1ccc2c(c1)CCN(C(=O)C(C)C)C2 [Example 25, (S)-N-ethyl-2-isobutyryl-N-(1-phenylethyl)-1,2,3,4-tetrahydroisoquinoline-6-sulfonamide] |
| 4.17 | CCN([C@H](C)c1ccccc1)S(=O)(=O)c1ccc2c(c1)CCN(C(=O)C(C)C)C2 [Example 26, (R)-N-ethyl-2-isobutyryl-N-(1-phenylethyl)-1,2,3,4-tetrahydroisoquinoline-6-sulfonamide] |
| 3.63 | CCN([C@H](C)c1ccccc1)S(=O)(=O)c1ccc2c(c1)CCN(C(=O)C1CC1)C2 [Example 27, (R)-2-(cyclopropanecarbonyl)-N-ethyl-N-(1-phenylethyl)-1,2,3,4-tetrahydroisoquinoline-6-sulfonamide] |
| 3.8 | CCN(C1(c2ccc(F)cc2)COC1)S(=O)(=O)c1ccc2c(c1)CN(C(=O)C(C)C)CC2 [Example 28, N-ethyl-N-(3-(4-fluorophenyl)oxetan-3-yl)-2-isobutyryl-1,2,3,4-tetrahydroisoquinoline-7-sulfonamide] |
| 7.08 | CC(C)C(=O)N1CCc2ccc(S(=O)(=O)N(C)C3(c4ccc(F)cc4)COC3)cc2C1 [Example 29, N-(3-(4-fluorophenyl)oxetan-3-yl)-2-isobutyryl-N-methyl-1,2,3,4-tetrahydroisoquinoline-7-sulfonamide] |
| 6.76 | CCN(C1(c2ccc(F)cc2)COC1)S(=O)(=O)c1ccc2c(c1)CCN(C(=O)C(C)C)C2 [Example 30, N-ethyl-N-(3-(4-fluorophenyl)oxetan-3-yl)-2-isobutyryl-1,2,3,4-tetrahydroisoquinoline-6-sulfonamide] |
| 9.12 | CC(C)C(=O)N1CCc2cc(S(=O)(=O)N(C)C3(c4ccc(F)cc4)COC3)ccc2C1 [Example 31, N-(3-(4-fluorophenyl)oxetan-3-yl)-2-isobutyryl-N-methyl-1,2,3,4-tetrahydroisoquinoline-6-sulfonamide] |
